In ChEMBL document CHEMBL3045986, “Antifungal activity of prenylated flavonoids isolated from Tephrosia apollinea L. against four phytopathogenic fungi” (2013):
Converted amounts (≈) assume the structure as drawn. One block for each molecule: values may come before it.

Columns and labels:
Type in all cases: functional
Helminthosporium [1] = test: Antifungal activity against Helminthosporium sp. assessed as growth inhibition at 25 degC after 48 hr by two-fold broth macrodilution method
Colletotrichum acutatum [2] = test: Antifungal activity against Colletotrichum acutatum assessed as growth inhibition at 25 degC after 48 hr by two-fold broth macrodilution method
Pestalotiopsis sp. [3] = test: Antifungal activity against Pestalotiopsis sp. assessed as growth inhibition at 25 degC after 48 hr by two-fold broth macrodilution method
Alternaria alternata [4] = test: Antifungal activity against Alternaria alternata assessed as growth inhibition at 1 mg/ml at 25 degC by agar well diffusion bioassay; details: read-out: GI
Alternaria alternata [5] = test: Antifungal activity against Alternaria alternata assessed as growth inhibition at 2 mg/ml at 25 degC by agar well diffusion bioassay; details: read-out: GI
Alternaria alternata [6] = test: Antifungal activity against Alternaria alternata assessed as growth inhibition at 3 mg/ml at 25 degC by agar well diffusion bioassay; details: read-out: GI
Alternaria alternata [7] = test: Antifungal activity against Alternaria alternata assessed as growth inhibition at 4 mg/ml at 25 degC by agar well diffusion bioassay; details: read-out: GI
Helminthosporium [8] = test: Antifungal activity against Helminthosporium sp. assessed as growth inhibition at 1 mg/ml at 25 degC by agar well diffusion bioassay; details: read-out: GI
Helminthosporium [9] = test: Antifungal activity against Helminthosporium sp. assessed as growth inhibition at 2 mg/ml at 25 degC by agar well diffusion bioassay; details: read-out: GI
Helminthosporium [10] = test: Antifungal activity against Helminthosporium sp. assessed as growth inhibition at 3 mg/ml at 25 degC by agar well diffusion bioassay; details: read-out: GI
Pestalotiopsis sp. [11] = test: Antifungal activity against Pestalotiopsis sp. assessed as growth inhibition at 1 mg/ml at 25 degC by agar well diffusion bioassay; details: read-out: GI
Helminthosporium [12] = test: Antifungal activity against Helminthosporium sp. assessed as growth inhibition at 4 mg/ml at 25 degC by agar well diffusion bioassay; details: read-out: GI
Pestalotiopsis sp. [13] = test: Antifungal activity against Pestalotiopsis sp. assessed as growth inhibition at 2 mg/ml at 25 degC by agar well diffusion bioassay; details: read-out: GI
Pestalotiopsis sp. [14] = test: Antifungal activity against Pestalotiopsis sp. assessed as growth inhibition at 4 mg/ml at 25 degC by agar well diffusion bioassay; details: read-out: GI
Pestalotiopsis sp. [15] = test: Antifungal activity against Pestalotiopsis sp. assessed as growth inhibition at 3 mg/ml at 25 degC by agar well diffusion bioassay; details: read-out: GI
Colletotrichum acutatum [16] = test: Antifungal activity against Colletotrichum acutatum assessed as growth inhibition at 1 mg/ml at 25 degC by agar well diffusion bioassay; details: read-out: GI
Colletotrichum acutatum [17] = test: Antifungal activity against Colletotrichum acutatum assessed as growth inhibition at 2 mg/ml at 25 degC by agar well diffusion bioassay; details: read-out: GI
Colletotrichum acutatum [18] = test: Antifungal activity against Colletotrichum acutatum assessed as growth inhibition at 4 mg/ml at 25 degC by agar well diffusion bioassay; details: read-out: GI
Colletotrichum acutatum [19] = test: Antifungal activity against Colletotrichum acutatum assessed as growth inhibition at 3 mg/ml at 25 degC by agar well diffusion bioassay; details: read-out: GI
Alternaria alternata [20] = test: Antifungal activity against Alternaria alternata assessed as growth inhibition at 25 degC after 48 hr by two-fold broth macrodilution method

Compound: COC(=O)Nc1nc2ccccc2[nH]1 [CARBENDAZIM]
MIC (Helminthosporium [1]): 70 µg/mL (≈ 366 µM)
MIC (Colletotrichum acutatum [2]): 70 µg/mL (≈ 366 µM)
MIC (Pestalotiopsis sp. [3]): 70 µg/mL (≈ 366 µM)
inhibition of growth at 1000 µg/mL (Alternaria alternata [4]): 43.1%
inhibition of growth at 2000 µg/mL (Alternaria alternata [5]): 56.7%
inhibition of growth at 3000 µg/mL (Alternaria alternata [6]): 63%
inhibition of growth at 4000 µg/mL (Alternaria alternata [7]): 67.8%
inhibition of growth at 1000 µg/mL (Helminthosporium [8]): 44.2%
inhibition of growth at 2000 µg/mL (Helminthosporium [9]): 61.1%
inhibition of growth at 3000 µg/mL (Helminthosporium [10]): 66.3%
inhibition of growth at 1000 µg/mL (Pestalotiopsis sp. [11]): 47.7%
inhibition of growth at 4000 µg/mL (Helminthosporium [12]): 79%
inhibition of growth at 2000 µg/mL (Pestalotiopsis sp. [13]): 61.3%
inhibition of growth at 4000 µg/mL (Pestalotiopsis sp. [14]): 70.6%
inhibition of growth at 3000 µg/mL (Pestalotiopsis sp. [15]): 68.4%
inhibition of growth at 1000 µg/mL (Colletotrichum acutatum [16]): 50.6%
inhibition of growth at 2000 µg/mL (Colletotrichum acutatum [17]): 60.3%
inhibition of growth at 4000 µg/mL (Colletotrichum acutatum [18]): 78.9%
inhibition of growth at 3000 µg/mL (Colletotrichum acutatum [19]): 73.9%
MIC (Alternaria alternata [20]): 125 µg/mL (≈ 654 µM)

Compound: CC(=O)O[C@@H]1C(C)(C)OC(=O)[C@@]12COc1ccc3c(=O)cc(-c4ccccc4)oc3c12 [ISOGLABRATEPHRIN]
MIC (Helminthosporium [1]): 1000 µg/mL (≈ 2380 µM)
MIC (Colletotrichum acutatum [2]): 250 µg/mL (≈ 595 µM)
MIC (Pestalotiopsis sp. [3]): 1000 µg/mL (≈ 2380 µM)
inhibition of growth at 1000 µg/mL (Alternaria alternata [4]): 3.2%
inhibition of growth at 2000 µg/mL (Alternaria alternata [5]): 8.4%
inhibition of growth at 3000 µg/mL (Alternaria alternata [6]): 10.7%
inhibition of growth at 4000 µg/mL (Alternaria alternata [7]): 16.1%
inhibition of growth at 1000 µg/mL (Helminthosporium [8]): 7.4%
inhibition of growth at 2000 µg/mL (Helminthosporium [9]): 16.3%
inhibition of growth at 3000 µg/mL (Helminthosporium [10]): 28.9%
inhibition of growth at 1000 µg/mL (Pestalotiopsis sp. [11]): 6.3%
inhibition of growth at 4000 µg/mL (Helminthosporium [12]): 32.6%
inhibition of growth at 2000 µg/mL (Pestalotiopsis sp. [13]): 14.4%
inhibition of growth at 4000 µg/mL (Pestalotiopsis sp. [14]): 27.5%
inhibition of growth at 3000 µg/mL (Pestalotiopsis sp. [15]): 17%
inhibition of growth at 1000 µg/mL (Colletotrichum acutatum [16]): 14.4%
inhibition of growth at 2000 µg/mL (Colletotrichum acutatum [17]): 25.3%
inhibition of growth at 4000 µg/mL (Colletotrichum acutatum [18]): 42.9%
inhibition of growth at 3000 µg/mL (Colletotrichum acutatum [19]): 37%
MIC (Alternaria alternata [20]): 1000 µg/mL (≈ 2380 µM)

Second part, led by results:

MIC (Helminthosporium [1]): 250 µg/mL (≈ 595 µM)
MIC (Colletotrichum acutatum [2]): 250 µg/mL (≈ 595 µM)
MIC (Pestalotiopsis sp. [3]): 500 µg/mL (≈ 1190 µM)
MIC (Alternaria alternata [20]): 500 µg/mL (≈ 1190 µM)
Compound: CC(=O)O[C@@H]1C(C)(C)OC(=O)[C@]12COc1ccc3c(=O)cc(-c4ccccc4)oc3c12 [(+)-GLABRATEPHRIN]
inhibition of growth at 1000 µg/mL (Alternaria alternata [4]): 5.3%
inhibition of growth at 2000 µg/mL (Alternaria alternata [5]): 10%
inhibition of growth at 3000 µg/mL (Alternaria alternata [6]): 17%
inhibition of growth at 4000 µg/mL (Alternaria alternata [7]): 24.1%
inhibition of growth at 1000 µg/mL (Helminthosporium [8]): 13.9%
inhibition of growth at 2000 µg/mL (Helminthosporium [9]): 11.6%
inhibition of growth at 3000 µg/mL (Helminthosporium [10]): 23.3%
inhibition of growth at 1000 µg/mL (Pestalotiopsis sp. [11]): 8%
inhibition of growth at 4000 µg/mL (Helminthosporium [12]): 37.8%
inhibition of growth at 2000 µg/mL (Pestalotiopsis sp. [13]): 11.8%
inhibition of growth at 4000 µg/mL (Pestalotiopsis sp. [14]): 31.9%
inhibition of growth at 3000 µg/mL (Pestalotiopsis sp. [15]): 20.8%
inhibition of growth at 1000 µg/mL (Colletotrichum acutatum [16]): 16.1%
inhibition of growth at 2000 µg/mL (Colletotrichum acutatum [17]): 26.4%
inhibition of growth at 4000 µg/mL (Colletotrichum acutatum [18]): 46.4%
inhibition of growth at 3000 µg/mL (Colletotrichum acutatum [19]): 32.6%

MIC (Helminthosporium [1]): 500 µg/mL (≈ 1490 µM)
MIC (Colletotrichum acutatum [2]): 500 µg/mL (≈ 1490 µM)
MIC (Pestalotiopsis sp. [3]): 500 µg/mL (≈ 1490 µM)
MIC (Alternaria alternata [20]): 1000 µg/mL (≈ 2970 µM)
Compound: COc1ccc2c(=O)cc(-c3ccccc3)oc2c1/C=C/C(C)(C)O [LANCEOLATIN-A]
inhibition of growth at 1000 µg/mL (Alternaria alternata [4]): 3.3%
inhibition of growth at 2000 µg/mL (Alternaria alternata [5]): 6.6%
inhibition of growth at 3000 µg/mL (Alternaria alternata [6]): 8.1%
inhibition of growth at 4000 µg/mL (Alternaria alternata [7]): 14.1%
inhibition of growth at 1000 µg/mL (Helminthosporium [8]): 4.1%
inhibition of growth at 2000 µg/mL (Helminthosporium [9]): 7.7%
inhibition of growth at 3000 µg/mL (Helminthosporium [10]): 10.7%
inhibition of growth at 1000 µg/mL (Pestalotiopsis sp. [11]): 8.4%
inhibition of growth at 4000 µg/mL (Helminthosporium [12]): 16%
inhibition of growth at 2000 µg/mL (Pestalotiopsis sp. [13]): 16.3%
inhibition of growth at 4000 µg/mL (Pestalotiopsis sp. [14]): 29.7%
inhibition of growth at 3000 µg/mL (Pestalotiopsis sp. [15]): 23.8%
inhibition of growth at 1000 µg/mL (Colletotrichum acutatum [16]): 10%
inhibition of growth at 2000 µg/mL (Colletotrichum acutatum [17]): 15.2%
inhibition of growth at 4000 µg/mL (Colletotrichum acutatum [18]): 32.6%
inhibition of growth at 3000 µg/mL (Colletotrichum acutatum [19]): 22.6%

MIC (Helminthosporium [1]): 250 µg/mL (≈ 634 µM)
MIC (Colletotrichum acutatum [2]): 125 µg/mL (≈ 317 µM)
MIC (Pestalotiopsis sp. [3]): 250 µg/mL (≈ 634 µM)
MIC (Alternaria alternata [20]): 500 µg/mL (≈ 1270 µM)
Compound: CC(=O)OC(C1COc2ccc3c(=O)cc(-c4ccccc4)oc3c21)C(C)(C)O (stereo not given) [TEPHROAPOLLIN-F]
inhibition of growth at 1000 µg/mL (Alternaria alternata [4]): 11.9%
inhibition of growth at 2000 µg/mL (Alternaria alternata [5]): 16%
inhibition of growth at 3000 µg/mL (Alternaria alternata [6]): 23.3%
inhibition of growth at 4000 µg/mL (Alternaria alternata [7]): 32.8%
inhibition of growth at 1000 µg/mL (Helminthosporium [8]): 18%
inhibition of growth at 2000 µg/mL (Helminthosporium [9]): 24.6%
inhibition of growth at 3000 µg/mL (Helminthosporium [10]): 36.3%
inhibition of growth at 1000 µg/mL (Pestalotiopsis sp. [11]): 21.7%
inhibition of growth at 4000 µg/mL (Helminthosporium [12]): 46.5%
inhibition of growth at 2000 µg/mL (Pestalotiopsis sp. [13]): 26.1%
inhibition of growth at 4000 µg/mL (Pestalotiopsis sp. [14]): 51.7%
inhibition of growth at 3000 µg/mL (Pestalotiopsis sp. [15]): 45.1%
inhibition of growth at 1000 µg/mL (Colletotrichum acutatum [16]): 23.3%
inhibition of growth at 2000 µg/mL (Colletotrichum acutatum [17]): 31.9%
inhibition of growth at 4000 µg/mL (Colletotrichum acutatum [18]): 58.3%
inhibition of growth at 3000 µg/mL (Colletotrichum acutatum [19]): 40.3%
